# Patent publication US5189043A, “Isoquinolone derivatives, their production and use” (Takeda Chemical Industries, Ltd., priority 1989, dated 1993)
# Target: T1, HMG-CoA reductase of rat's liver microsome (Rattus norvegicus, UniProt P51639)
# T1 construct: from tissue; host or cells: liver microsomes of male Sprague-Dawley rats fed 5% cholestyramine diet for 5 days
# T1 sequence (P51639 1-887): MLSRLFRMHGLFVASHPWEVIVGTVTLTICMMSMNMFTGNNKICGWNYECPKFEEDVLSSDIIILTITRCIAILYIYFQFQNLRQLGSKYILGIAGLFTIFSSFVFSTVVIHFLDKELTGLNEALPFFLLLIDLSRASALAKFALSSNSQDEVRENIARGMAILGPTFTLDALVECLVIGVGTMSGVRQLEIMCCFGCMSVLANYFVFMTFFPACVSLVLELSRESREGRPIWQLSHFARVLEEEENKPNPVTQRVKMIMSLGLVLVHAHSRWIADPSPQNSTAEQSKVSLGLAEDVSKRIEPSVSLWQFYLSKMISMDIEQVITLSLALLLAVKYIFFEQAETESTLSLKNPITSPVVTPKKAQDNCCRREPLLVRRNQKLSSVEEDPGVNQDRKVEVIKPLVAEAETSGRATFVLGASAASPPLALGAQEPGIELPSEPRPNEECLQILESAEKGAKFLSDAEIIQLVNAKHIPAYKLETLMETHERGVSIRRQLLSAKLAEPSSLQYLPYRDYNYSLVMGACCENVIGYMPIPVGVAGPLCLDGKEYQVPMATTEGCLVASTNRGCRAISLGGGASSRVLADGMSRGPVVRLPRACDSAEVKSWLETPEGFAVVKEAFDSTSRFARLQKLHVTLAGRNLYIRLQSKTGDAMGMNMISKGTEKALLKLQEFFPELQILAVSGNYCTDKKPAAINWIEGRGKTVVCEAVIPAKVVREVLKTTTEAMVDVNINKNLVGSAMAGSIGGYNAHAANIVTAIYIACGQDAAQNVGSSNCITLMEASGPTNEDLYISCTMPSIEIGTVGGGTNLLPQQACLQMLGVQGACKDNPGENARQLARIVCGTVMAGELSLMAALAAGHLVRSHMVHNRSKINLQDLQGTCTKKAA
# Assay: Inhibitory action for HMG-CoA reductase of rat's liver microsome
# Type: biochemical, male Sprague-Dawley rats
# Details: at 10-^6 M, rat liver microsome (cholestyramine-fed), d,l-[3-^14 C]-HMG-CoA 0.5 mM, NADPH 20 mM, 37° C. 30 minutes; for inhibition at 1 µM: 0.5 h
# Protocol: Inhibitory action for HMG-CoA reductase of rat's liver microsome
# 5% cholestyramine diet was fed to male Sprague-Dawley rats (300-400 g of body weight) for 5 days. Activity for HMG-CoA reductase of liver microsome was measured by a variant of the method of Shapiro et al [Biochem. Biophys. Acta 370, 36(1974)]. In this method, the enzyme activity is determined by measuring the formation of ^14 C-mevalonate from a substrate [3^14 C]-HMG-CoA in the presence of NADPH. ^14 C-Mevalonate is converted into its lactone which can be isolated by silica gel thin layer chromatography developing with benzene: acetone (50:50).
# In order to measure inhibitory action for HMG-CoA reductase, test compound was dissolved in dimethyl sulfoxide and the solution was diluted with a buffer solution (100 mM phosphate buffer, 20 mM EDTA.2Na, […] dithioethritol).
# The resulting mixture was incubated with microsome (120 μg protein) at 30° C. for 15 minutes, and further incubated at 37° C. for 30 minutes after addition of d,l-[3-^14 C]-HMG-CoA (0.5 mM, 5000 dpm/nmol) and NADPH (20 mM).
inhibition at 1 µM,SMILES,Inhibition (%)
91.2%,"CC(C)n1c(-c2ccc(F)cc2)c(/C=C/[C@@H](O)C[C@@H](O)CC(=O)O)c2ccccc2c1=O (relative stereo) [Example 2-2, Sodium [3R*,5S*(E)]-7-[1,2-dihydro-3-(4-fluorophenyl)-2-(1-methylethyl)-1-oxo-4-isoquinolinyl]-3,5-dihydroxy-6-heptenoate]",
94.2%,CCn1c(-c2ccc(F)cc2)c(/C=C/[C@@H](O)C[C@@H](O)CC(=O)OC)c2ccccc2c1=O (relative stereo) [Example 15-1],
96.1%,CCn1c(-c2ccc(F)cc2)c(/C=C/[C@@H](O)C[C@@H](O)CC(=O)O)c2ccccc2c1=O (relative stereo) [Example 15-2],
90.7%,CCCCCn1c(-c2ccc(F)cc2)c(/C=C/[C@@H](O)C[C@@H](O)CC(=O)OC)c2ccccc2c1=O (relative stereo) [Example 18-1],
95%,CC(C)Cn1c(-c2ccc(F)cc2)c(/C=C/[C@@H](O)C[C@@H](O)CC(=O)O)c2ccccc2c1=O (relative stereo) [Example 21-2],
89.6%,O=C(O)C[C@H](O)C[C@H](O)/C=C/c1c(-c2ccc(F)cc2)n(Cc2ccccc2)c(=O)c2ccccc12 (relative stereo) [Example 24-2],
96.2%,COc1ccc(CCn2c(-c3ccc(F)cc3)c(/C=C/[C@@H](O)C[C@@H](O)CC(=O)O)c3ccccc3c2=O)cc1 (relative stereo) [Example 37-2],
92.6%,O=C(O)C[C@H](O)C[C@H](O)/C=C/c1c(-c2ccc(F)cc2)n(CCc2ccccc2F)c(=O)c2ccccc12 (relative stereo) [Example 40-2],
88.2%,COCCn1c(-c2ccc(F)cc2)c(/C=C/[C@@H](O)C[C@@H](O)CC(=O)O)c2ccccc2c1=O (relative stereo) [Example 41-2],
93.3%,CC(C)n1c(-c2ccc(F)cc2)c(/C=C/[C@@H](O)C[C@@H](O)CC(=O)O)c2c(c1=O)CCCC2 (relative stereo) [Example 47-2],
97.1%,"CCCn1c(-c2ccc(F)cc2)c(/C=C/[C@@H](O)C[C@@H](O)CC(=O)O)c2ccccc2c1=O [Example 49-2, Sodium [3R, 5S(E)]-7-[1,2-dihydro-3-(4-fluorophenyl)-2-propyl-1-oxo-4-isoquinolinyl]-3,5-dihydroxy-6-heptenoate]",

# Further lines, the molecule ahead of its results:
SMILES,inhibition at 1 µM,Inhibition (%)
"COc1cc(F)ccc1-c1c(/C=C/[C@@H](O)C[C@@H](O)CC(=O)O)c2ccccc2c(=O)n1C(C)C (relative stereo) [Example 1-2, Sodium [3R*,5S*(E)]-7-[1,2-dihydro-3-(4-fluoro-2-methoxyphenyl-2-(1-methylethyl)-1-oxo-4-isoquinolinyl]-3,5-dihydroxy-6-heptenoate]",92%,
Cc1cc(F)ccc1-c1c(/C=C/[C@@H](O)C[C@@H](O)CC(=O)O)c2ccccc2c(=O)n1C(C)C (relative stereo) [Example 5-2],90.4%,
CCCn1c(-c2ccc(F)cc2C)c(/C=C/[C@@H](O)C[C@@H](O)CC(=O)O)c2ccccc2c1=O (relative stereo) [Example 10-2],90.4%,
CCCn1c(-c2ccc(F)cc2F)c(/C=C/[C@@H](O)C[C@@H](O)CC(=O)O)c2ccccc2c1=O (relative stereo) [Example 11-2],90.9%,
COC(=O)C[C@H](O)C[C@H](O)/C=C/c1c(-c2ccc(F)cc2)n(CCc2ccccc2)c(=O)c2ccccc12 (relative stereo) [Example 13-1],89.6%,
O=C(O)C[C@H](O)C[C@H](O)/C=C/c1c(-c2ccc(F)cc2)n(CCc2ccccc2)c(=O)c2ccccc12 (relative stereo) [Example 13-2],95.1%,
CCOC(=O)C[C@H](O)C[C@H](O)/C=C/c1c(-c2ccc(F)cc2)n(C)c(=O)c2ccccc12 (relative stereo) [Example 14-1],91.1%,
Cn1c(-c2ccc(F)cc2)c(/C=C/[C@@H](O)C[C@@H](O)CC(=O)O)c2ccccc2c1=O (relative stereo) [Example 14-2],94%,
CCCn1c(-c2ccc(F)cc2)c(/C=C/[C@@H](O)C[C@@H](O)CC(=O)OCC)c2ccccc2c1=O (relative stereo) [Example 16-1],94.2%,
CCCn1c(-c2ccc(F)cc2)c(/C=C/[C@@H](O)C[C@@H](O)CC(=O)O)c2ccccc2c1=O (relative stereo) [Example 16-2],96.2%,
CCCCn1c(-c2ccc(F)cc2)c(/C=C/[C@@H](O)C[C@@H](O)CC(=O)OC)c2ccccc2c1=O (relative stereo) [Example 17-1],93.4%,
CCCCn1c(-c2ccc(F)cc2)c(/C=C/[C@@H](O)C[C@@H](O)CC(=O)O)c2ccccc2c1=O (relative stereo) [Example 17-2],95.8%,
CCCCCn1c(-c2ccc(F)cc2)c(/C=C/[C@@H](O)C[C@@H](O)CC(=O)O)c2ccccc2c1=O (relative stereo) [Example 18-2],96.5%,
CCCCCCCn1c(-c2ccc(F)cc2)c(/C=C/[C@@H](O)C[C@@H](O)CC(=O)O)c2ccccc2c1=O (relative stereo) [Example 19-2],88%,
COC(=O)C[C@H](O)C[C@H](O)/C=C/c1c(-c2ccc(F)cc2)n(CC(C)C)c(=O)c2ccccc12 (relative stereo) [Example 21-1],91.3%,
O=C(O)C[C@H](O)C[C@H](O)/C=C/c1c(-c2ccc(F)cc2)n(CCCc2ccccc2)c(=O)c2ccccc12 (relative stereo) [Example 32-2],89.6%,
O=C(O)C[C@H](O)C[C@H](O)/C=C/c1c(-c2ccc(F)cc2)n(CCc2ccc(Cl)cc2)c(=O)c2ccccc12 (relative stereo) [Example 33-2],95.7%,
O=C(O)C[C@H](O)C[C@H](O)/C=C/c1c(-c2ccc(F)cc2)n(CCc2ccc(F)cc2)c(=O)c2ccccc12 (relative stereo) [Example 35-2],96.9%,
Cc1ccc(CCn2c(-c3ccc(F)cc3)c(/C=C/[C@@H](O)C[C@@H](O)CC(=O)O)c3ccccc3c2=O)cc1 (relative stereo) [Example 36-2],93.2%,
COc1ccccc1CCn1c(-c2ccc(F)cc2)c(/C=C/[C@@H](O)C[C@@H](O)CC(=O)O)c2ccccc2c1=O (relative stereo) [Example 38-2],95.9%,
O=C(O)C[C@H](O)C[C@H](O)/C=C/c1c(-c2ccc(F)cc2)n(CCc2cccc(F)c2)c(=O)c2ccccc12 (relative stereo) [Example 39-2],91.7%,
CSCCn1c(-c2ccc(F)cc2)c(/C=C/[C@@H](O)C[C@@H](O)CC(=O)O)c2ccccc2c1=O (relative stereo) [Example 42-2],94.1%,
C=CCn1c(-c2ccc(F)cc2)c(/C=C/[C@@H](O)C[C@@H](O)CC(=O)O)c2ccccc2c1=O (relative stereo) [Example 43-2],90.6%,
CCCn1c(-c2ccc(F)cc2)c(/C=C/[C@@H](O)C[C@@H](O)CC(=O)O)c2c(c1=O)CCCC2 (relative stereo) [Example 48-2],96.6%,
CCCn1c(-c2ccc(F)cc2)c(/C=C/[C@@H]2C[C@@H](O)CC(=O)O2)c2ccccc2c1=O [Example 49-3],92.5%,
"CC[C@H](C)C(=O)O[C@H]1C[C@@H](C)C=C2C=C[C@H](C)[C@H](CC[C@@H]3C[C@@H](O)CC(=O)O3)[C@H]21 [Mevinolin, reference compound]",,75.5%
